Our source for the inhibition, Activity and IC50 values is ChEMBL document CHEMBL1914337, “Synthesis and biological evaluation of 2-indolinone derivatives as potential antitumor agents” (Eur J Med Chem, 2011).

For assay [1], the target named is T1, Vascular endothelial growth factor receptor 2 (Homo sapiens, UniProt P35968). Description: Inhibition of VEGF-induced VEGFR2 phosphorylation in human HCT116 cells at 0.2 to 20 uM treated 30 mins before VEGF challenge measured after 2 hrs by immuno blot analysis. Type of assay: cell-based. To be noted: HCT-116.
T1 sequence (P35968 whole entry): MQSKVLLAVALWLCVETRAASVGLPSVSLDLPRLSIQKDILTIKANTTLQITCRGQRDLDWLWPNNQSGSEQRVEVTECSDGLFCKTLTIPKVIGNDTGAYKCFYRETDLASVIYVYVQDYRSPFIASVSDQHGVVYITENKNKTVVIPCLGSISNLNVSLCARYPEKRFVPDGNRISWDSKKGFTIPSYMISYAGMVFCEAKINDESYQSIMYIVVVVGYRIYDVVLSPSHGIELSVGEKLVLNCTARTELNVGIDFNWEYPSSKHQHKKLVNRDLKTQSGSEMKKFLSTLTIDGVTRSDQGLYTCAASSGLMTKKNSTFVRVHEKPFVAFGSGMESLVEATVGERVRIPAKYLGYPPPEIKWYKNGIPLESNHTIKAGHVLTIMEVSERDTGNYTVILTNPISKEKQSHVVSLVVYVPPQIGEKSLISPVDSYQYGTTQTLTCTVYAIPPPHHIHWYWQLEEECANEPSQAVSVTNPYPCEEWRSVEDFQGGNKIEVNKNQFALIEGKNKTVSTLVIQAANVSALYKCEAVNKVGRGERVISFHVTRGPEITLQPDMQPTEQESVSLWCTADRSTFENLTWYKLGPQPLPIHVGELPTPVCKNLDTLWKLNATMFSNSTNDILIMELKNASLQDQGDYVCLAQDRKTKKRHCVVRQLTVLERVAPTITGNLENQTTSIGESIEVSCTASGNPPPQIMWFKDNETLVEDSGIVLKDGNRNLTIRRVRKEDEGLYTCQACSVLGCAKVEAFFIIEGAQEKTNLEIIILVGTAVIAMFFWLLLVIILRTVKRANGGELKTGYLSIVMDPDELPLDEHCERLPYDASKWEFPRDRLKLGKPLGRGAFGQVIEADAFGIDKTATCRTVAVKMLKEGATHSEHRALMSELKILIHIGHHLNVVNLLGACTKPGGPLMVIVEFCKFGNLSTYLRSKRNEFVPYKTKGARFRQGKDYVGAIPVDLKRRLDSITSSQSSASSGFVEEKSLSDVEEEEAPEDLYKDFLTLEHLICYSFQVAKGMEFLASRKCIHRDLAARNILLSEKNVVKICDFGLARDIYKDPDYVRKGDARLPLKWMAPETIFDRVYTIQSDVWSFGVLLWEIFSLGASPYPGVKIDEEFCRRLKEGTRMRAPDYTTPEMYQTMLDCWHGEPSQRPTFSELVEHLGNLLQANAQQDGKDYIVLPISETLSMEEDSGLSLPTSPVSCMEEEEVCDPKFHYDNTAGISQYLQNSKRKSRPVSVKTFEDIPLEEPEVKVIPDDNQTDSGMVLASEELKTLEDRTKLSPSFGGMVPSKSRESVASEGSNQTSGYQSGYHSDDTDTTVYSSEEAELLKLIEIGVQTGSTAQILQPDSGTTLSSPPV
The subject of assay [2] is HCT-116. As to the kind of experiment: Cell cycle arrest in human HCT116 cells assessed as accumulation at G2 phase at 2 uM after 48 hrs using propidium iodide by flow cytometry (reference value: 16.77%). Format: functional. A general note: A flow cytometer gives signals particle by particle.
Assay [3] has as its system HCT-116. As to the kind of experiment: Cell cycle arrest in human HCT116 cells assessed as accumulation at S phase at 8 uM after 48 hrs using propidium iodide by flow cytometry (reference value: 46.43%). Type of assay: functional.
The test system of assay [4] is HCT-116. As to the kind of experiment: cells. To be noted: Homo sapiens, HCT-116, 48 h.
Description: Cytotoxicity against human HCT116 cells after 48 hrs by MTT assay
In assay [5] the target is T1, Vascular endothelial growth factor receptor 2. Description: Inhibition of human VEGFR2 preincubated for 10 mins before ATP addition measured after 45 mins.
Assay [6] relates to HCT-116. Description: Cell cycle arrest in human HCT116 cells assessed as accumulation at G1 phase at 2 uM after 48 hrs using propidium iodide by flow cytometry (reference value: 36.8%). Type of assay: functional.
The nature of assay [7]: Cytotoxicity against human QSG7701 cells after 48 hrs by MTT assay. To be noted: QSG7701, 48 h. Format: cell-based. (In general: Formazan colour is commonly taken as a measure of viable cells.)
The subject of assay [8] is HCT-116. As to the kind of experiment: Cell cycle arrest in human HCT116 cells assessed as accumulation at G2 phase at 8 uM after 48 hrs using propidium iodide by flow cytometry (reference value: 16.77%). Type of assay: functional.
For assay [9], the system named is HCT-116. As to the kind of experiment: Induction of apoptosis in human HCT116 cells at 0.5 uM after 48 hrs using annexin V/propidium iodide staining by flow cytometry (reference value: 4.17%). Format: functional.
Assay [10] deals with HCT-116. Description: Cell cycle arrest in human HCT116 cells assessed as accumulation at G1 phase at 0.5 uM after 48 hrs using propidium iodide by flow cytometry (reference value: 36.8%). Type of assay: functional.
The test system of a further assay is A549. Description: cells. To be noted: Homo sapiens, A549, 48 h.
Assay [11] relates to HCT-116. As to the kind of experiment: Induction of apoptosis in human HCT116 cells at 2 uM after 48 hrs using annexin V/propidium iodide staining by flow cytometry (reference value: 4.17%). Type of assay: functional.
The next assay deals with PC-3. As to the kind of experiment: Cytotoxicity against human PC3 cells after 48 hrs by MTT assay. Type of assay: functional, cell-based. The following applies: PC-3, 48 h.
In assay [12] the test system is HCT-116. As to the kind of experiment: Induction of apoptosis in human HCT116 cells assessed as increase in late apoptotic cells after 48 hrs using annexin V/propidium iodide staining by flow cytometry. Type of assay: functional, cell-based.
In assay [13] the test system is HCT-116. As to the kind of experiment: Induction of apoptosis in human HCT116 cells at 8 uM after 48 hrs using annexin V/propidium iodide staining by flow cytometry (reference value: 4.17%). Format: functional.
Assay [14] deals with HCT-116. Description: Cell cycle arrest in human HCT116 cells assessed as accumulation at G1 phase after 48 hrs using propidium iodide by flow cytometry. Format: functional, cell-based.
The subject of the next assay is HL-60. As to the kind of experiment: cells. To be noted: Homo sapiens, HL-60, 48 h.
In assay [15] the test system is HCT-116. Description: Cell cycle arrest in human HCT116 cells assessed as accumulation at S phase at 2 uM after 48 hrs using propidium iodide by flow cytometry (reference value: 46.43%). Format: functional.
The subject of the next assay is HepG2. As to the kind of experiment: cells. To be noted: Homo sapiens, HepG2, 48 h.
Assay [16] concerns HCT-116. As to the kind of experiment: Cell cycle arrest in human HCT116 cells assessed as accumulation at G1 phase at 8 uM after 48 hrs using propidium iodide by flow cytometry (reference value: 36.8%). Format: functional.
Assay [17] relates to HCT-116. As to the kind of experiment: Cell cycle arrest in human HCT116 cells assessed as accumulation at G2 phase at 0.5 uM after 48 hrs using propidium iodide by flow cytometry (reference value: 16.77%). Type of assay: functional.
In assay [18] the test system is HCT-116. As to the kind of experiment: Cell cycle arrest in human HCT116 cells assessed as accumulation at S phase at 0.5 uM after 48 hrs using propidium iodide by flow cytometry (reference value: 46.43%). Format: functional.
In the next assay the test system is K562. Description: cells. To be noted: Homo sapiens, K562, 48 h.

Each structure is given as a SMILES string. Active and inactive are the calls of the source. The rule behind the calls is not given here. A value given as a limit tells only on which side of the number the result lay.

Description for A549: Cytotoxicity against human A549 cells after 48 hrs by MTT assay
Description for HL-60: Cytotoxicity against human HL60 cells after 48 hrs by MTT assay
Description for HepG2: Cytotoxicity against human HepG2 cells after 48 hrs by MTT assay
Description for K562: Cytotoxicity against human K562 cells after 48 hrs by MTT assay

With `CCN(CC)CCNC(=O)c1ccc(/C=C2\C(=O)Nc3ccc(F)cc32)[nH]c1=O.Cl`, in [1], the inhibition entry is “Active”. The Activity in the assay with HCT-116 [2] was 8.61%; in the assay on HCT-116 [3] it was 18.27%; with HCT-116 [6], 45.4%; with HCT-116 [8] it was 0.1%; in the assay with HCT-116 [9], 20.48%; in the assay on HCT-116 [10] it was 42.6%. The Activity in the assay on HCT-116 [11] is 28.63%; with HCT-116 [12] it was “Dose-dependent effect”; in the assay with HCT-116 [13], 48.67%; with HCT-116 [14], “Dose-dependent effect”; with HCT-116 [15], 38.76%; with HCT-116 [16] it was 81.63%. The values for the Activity with HCT-116 [17] and in the assay on HCT-116 [18] were 12.11% and 42.45%, respectively. Besides, the half-maximal inhibitory concentration (IC50) in the assay with HCT-116 [4] is 2.3 µM; in [5], 0.015 µM; in [7], > 50 µM; in the assay with A549, 6.2 µM; in the assay with PC-3, 21 µM; in the assay on HL-60, 22.7 µM. For the same compound, the half-maximal inhibitory concentration (IC50) was found to be 5 µM in the assay with HepG2 and 13.8 µM in the assay on K562.
For `Cc1[nH]c(/C=C2\C(=O)Nc3ccncc32)c(C)c1C(=O)NCCN(C)C`, in assay [1], the inhibition result was “Active”. Besides, the half-maximal inhibitory concentration (IC50) is 9.1 µM in the assay with HCT-116 [4]; 0.06 µM in assay [5]; > 50 µM in [7]; 12.5 µM with A549; > 50 µM in the assay with PC-3; 34.8 µM in the assay on HL-60. In addition, the IC50 in the assay with HepG2 was 8.6 µM; with K562 it was 15.7 µM.
`CCc1cccc2c(/C=C3\C(=O)Nc4ccc(F)cc43)c[nH]c12`: the inhibition entry in [1] is “Active”. The IC50 with HCT-116 [4] is 8.6 µM; in [5] it was 6.58 µM; in assay [7], > 50 µM; in the assay with A549, 11 µM; in the assay with PC-3 it was 26.4 µM; with HL-60 it was 26.7 µM. Further, the half-maximal inhibitory concentration (IC50) with HepG2 came to 28.1 µM; in the assay on K562 it was 15.8 µM.
Take `CCN(CC)CCNC(=O)c1c(C)[nH]c(/C=C2\C(=O)Nc3ccc(F)cc32)c1C` [SUNITINIB]: the IC50 is 6.1 µM in the assay with HCT-116 [4]; > 50 µM in assay [7]; 18.5 µM with A549; 25.1 µM in the assay on PC-3; 15.5 µM in the assay on HL-60; 15.4 µM with HepG2. Also, the IC50 in the assay on K562 was found to be 21.9 µM.
Take `CCc1cccc2c(C=C3C(=O)Nc4cccnc43)c[nH]c12` (mixture of isomers): the IC50 with HCT-116 [4] was 22.3 µM; in assay [7], 44.8 µM; in the assay on A549, 32.5 µM; in the assay on PC-3 it was > 50 µM; with HL-60, 34.2 µM; with HepG2 it was > 50 µM. Also, in the assay on K562, the 50% inhibitory concentration (IC50) is > 50 µM.
As for `O=C1Nc2cccnc2C1=Cc1c[nH]c2ccc(F)cc12` (mixture of isomers), the IC50 (with HCT-116 [4]; in assay [7]; with A549; with PC-3; with HL-60; with HepG2) was > 50 µM throughout. The IC50 in the assay on K562 was > 50 µM.
On to `CN(C)CCNC(=O)c1ccc(/C=C2\C(=O)Nc3ncccc32)[nH]c1=O`, for which the IC50 with HCT-116 [4] is 4.3 µM; in assay [7] it was > 50 µM; with A549 it was 13.7 µM; in the assay on PC-3, 26 µM; with HL-60, 34.3 µM; with HepG2, 27.3 µM. This compound also yielded an IC50 in the assay with K562 of 21.3 µM.
As to `CCc1cccc2c(/C=C3\C(=O)Nc4ncccc43)c[nH]c12`, the IC50 was 13.6 µM with HCT-116 [4]; 42.6 µM in assay [7]; 17.1 µM in the assay on A549; > 50 µM in the assay with PC-3; 37.4 µM in the assay with HL-60; 10.5 µM with HepG2. Further, 27.7 µM corresponded to half-maximal inhibition in the assay with K562 (IC50).
As to `CCN(CC)CCNC(=O)c1c(C)[nH]c(/C=C2\C(=O)Nc3ccncc32)c1C`, the 50% inhibitory concentration (IC50) is 11 µM in the assay on HCT-116 [4]; > 50 µM in [7]; 13.9 µM with A549; > 50 µM with PC-3; 35 µM in the assay on HL-60; 16.4 µM with HepG2. This compound also had an IC50 in the assay on K562 of 14.8 µM.
For `CCN(CC)CCNC(=O)c1ccc(/C=C2\C(=O)Nc3cccnc32)[nH]c1=O`, the IC50 was 8.2 µM in the assay with HCT-116 [4]; > 50 µM in assay [7]; 11.8 µM in the assay with A549; 30.3 µM in the assay on PC-3; 32.9 µM in the assay with HL-60; 12.6 µM in the assay on HepG2. In the assay on K562, this compound registered a concentration for half-maximal inhibition (IC50) of 25.3 µM.
For the compound `Cc1[nH]c(/C=C2\C(=O)Nc3ccncc32)c(C)c1C(=O)N1CCN(C)CC1`, the IC50 (in the assay with HCT-116 [4]; in assay [7]; with A549; with PC-3; in the assay on HL-60; in the assay with HepG2) was > 50 µM each time. The half-inhibitory concentration (IC50) in the assay with K562 is > 50 µM.
For `Cc1[nH]c(/C=C2\C(=O)Nc3ncccc32)c(C)c1C(=O)NCCN1CCCCC1`, the IC50 in the assay with HCT-116 [4] was 18.1 µM; in assay [7], > 50 µM; in the assay on A549, 25.4 µM; in the assay with PC-3, 25.6 µM; in the assay with HL-60, 30.2 µM; in the assay on HepG2 it was 38.6 µM. The compound also yielded a concentration for half-maximal inhibition (IC50) with K562 of 18 µM.
With `CN(C)CCNC(=O)c1ccc(/C=C2\C(=O)Nc3ccc(F)cc32)[nH]c1=O`, the IC50 was 5.3 µM in the assay on HCT-116 [4]; > 50 µM in [7]; 12.6 µM in the assay on A549; 25.2 µM with PC-3; 24.7 µM in the assay on HL-60; 17.1 µM with HepG2. In addition, in the assay with K562, the IC50 was found to be 19.3 µM.
Take `Cc1[nH]c(/C=C2\C(=O)Nc3ncccc32)c(C)c1C(=O)N1CCN(CCO)CC1`: the 50% inhibitory concentration (IC50) (in the assay with HCT-116 [4]; in assay [7]; with A549; in the assay with PC-3; in the assay on HL-60; in the assay on HepG2) was > 50 µM throughout. In the assay on K562, the IC50 was > 50 µM.

The term IC50 denotes the concentration that gives 50% inhibition.
